The values that follow come from a melting point compilation (Tetko et al.; mined from patent text by program, amines drawn as free bases though some values may be those of a salt).

As a reminder, the melting point is the temperature of the solid-liquid transition.

The molecule `CCOP(=O)(OCC)C(CC(C(=O)Nc1ccccc1)C(=O)c1ccccc1)P(=O)(OCC)OCC` (stereo not given) came in with a melting point of 104 to 105 °C. In turn, `O=C(O)COc1coc2ccccc2c1=O` showed a melting point of 154 to 164 °C.

Molecule `COc1ccc(C2CNCCc3c2cc(OC)c(OC)c3C)cc1` (stereo not given) came in with a melting point of 100 to 111 °C.

For the molecule `CCCc1cc(Cn2c(=O)ccc3c(CC)nc(CC)cc32)ccc1O[Si](C)(C)C(C)(C)C`, the melting point was in the range of 103 to 105 °C.

For the molecule `CCOc1cccc2cc(C(=O)c3ccc(Cl)cc3)oc12`, the melting point was 108 to 110 °C. As to `CCSc1ccc2nc(C(F)(F)F)c(S(N)(=O)=O)n2n1`, the melting point lay in the range of 208 to 210 °C. For `CCOC(=O)c1c(C(F)(F)F)nc(OCC)c(C(=O)OC)c1OCC`, the melting point was 46 to 48 °C.

`Cc1ccc(S(=O)(=O)N2CCOC(C)(C)C2)cc1`: the melting point is 95 to 97 °C. The molecule `Cc1cccc2c1nc(COc1ccc(Cl)cc1)n2CCC(Cc1ccccc1)C(=O)N1CCCCC1` (stereo not given) returned a melting point of 93.5 to 95 °C.

`CC(C(=O)c1ccc(F)cc1)N1CCC(O)(Cc2ccccc2)CC1` (stereo not given) displayed a melting point of 120 °C. Regarding `COc1ccc2c(cc3n2CCc2ccccc2-3)n1`, the melting point fell in the range of 179 to 180 °C. The molecule `Cc1ccc(C2CCN(Cc3ccc(COc4cccc5c4CN(C4CCC(=O)NC4=O)C5=O)cc3)CC2)cc1` (stereo not given) displayed a melting point of 208 to 210 °C. As for `O=C(CCNC(=O)c1ccccc1C(=O)O)NO`, the melting point was 58 to 65 °C. Molecule `CCN(CC)CCn1c2ccccc2c(=NN=C2SCCN2C)c2ccccc21` had a melting point of 123 to 125 °C. To `CC(=O)OCc1nc2cc(Cl)c(C)cc2c(=O)[nH]1` belongs 220 to 225 °C.

The molecule `N#Cc1ccccc1C=Cc1ccccc1C#N` gave a melting point of 187 to 189 °C. `COCOc1nn(-c2ccccc2)cc1C=O`: the melting point was in the range of 106 to 107 °C. Regarding `COC(=O)c1cc2cc(OC)c(OC)cc2c(-c2ccnc(Cl)c2)n1`, the melting point fell in the range of 246 to 247 °C. To `CC(C)(C)OC(=O)N1CCCC(C2=C(C#N)C(c3cccc(C#N)c3Br)c3c[nH]nc3N2)C1` (stereo not given) belongs 238 °C; to `COC(=O)C(Cc1ccccc1)NC(=O)C(CC(=O)O)NC(=O)CC(C)=O` (stereo not given), 118 to 121 °C; to `N#Cc1c(Cl)cccc1C(Br)Br`, 120 °C. Molecule `Nc1cc(Cl)cc(C(=O)N[C@@H]2CN3CCC2CC3)c1OCc1cccc(I)c1` came in with a melting point of 102 to 104 °C. To `O=C(c1cccc(NC(=O)c2ccn3c2CSC3c2cccnc2)c1)c1ccccn1` (stereo not given) belongs 165 °C; to `Nc1c(F)c(N2CCCC(n3ccnn3)C2)c(F)c2c1c(=O)c(C(=O)O)cn2C1CC1` (stereo not given), 252 to 254 °C; to `CCOP(=O)(CC(=O)NNc1nc2ccc(C(F)(F)F)cc2n(O)c1=O)OCC`, 193 to 196 °C.

Regarding `N#Cc1ccc(-c2ncc(C(F)(F)F)cc2Cl)cc1O`, the melting point lay in the range of 155 to 157 °C.

For the molecule `CC(C)c1cccc(C(C)C)c1NS(=O)(=O)CC(=O)O`, the melting point was 153 to 155 °C. `OC(CNCCNc1ccc(Cl)nn1)COc1ccccc1` (stereo not given) displayed a melting point of 147 to 149 °C. `COc1cc(C=CC(=O)Nc2ccccc2C(=O)O)ccc1O`: the melting point was found to be 208 °C. In the case of `COc1cc2c(c(OC)c1OC)C(CN1CCC(c3noc4cc(F)ccc34)CC1)=C2`, the melting point is 141 to 143 °C. To `CC(=O)C1(C)COC(c2ccc([N+](=O)[O-])cc2)OC1` (stereo not given) belongs 101 to 102 °C; to `O=C(Nc1ccc([N+](=O)[O-])cc1)c1ccc(F)cc1`, 117 to 118 °C; to `CC1(C)OC(C=Cc2ccc(C(F)(F)F)cc2)=CC1=O`, 94 to 95 °C. `COC(=O)C1=C(C)NC(C)=C(C(=O)OCCCCCCOc2cc(-c3ccc(OC)cc3)[nH]n2)C1c1cccc(Cl)c1Cl` (stereo not given): the melting point fell in the range of 146 to 148 °C. `CNC(=NCCn1cc(Cn2ccnc2)c2ccccc21)NC#N` registered a melting point of 172 to 173 °C. `O=C(O)Cc1ccc2c(c1)C(=O)c1ccccc1CN2` had a melting point of 132 to 143 °C. Molecule `C[C@H](Cn1ncnn1)n1nnc2cc3c(=O)n(C4CC4)nnc3cc2c1=O` showed a melting point of 190 to 192 °C. The molecule `CCN(CC)C(=O)c1ccc2c(c1)C(=C(Cl)Cl)OC(C(Cl)(Cl)Cl)O2` (stereo not given) registered a melting point of 123 to 124 °C.

Turning to `O=C(O)CCOCCCc1ccnc(-c2nc(=O)c3ccccc3s2)c1`, the melting point came to 154 °C. With `CC1COCc2nc3c(N)nc4ccc(OCC(=O)N5CCOCC5)cc4c3n21` (stereo not given), the melting point lay within 226 to 228 °C.

`CC(=O)CN1CCN(C(=O)Cn2c(=O)sc3ncc(Cl)cc32)CC1`: the melting point is 191 to 193 °C.

In turn, `Nc1nnc(N2CCN(Cc3ccncc3)CC2)[nH]1` gave a melting point of 191 to 193 °C. Turning to `O=C(Cl)c1ccc(Cl)c(S(=O)(=O)NC2CCCCC2)c1`, the melting point was found to be 119 °C. With `COc1ccc2ncnc(N3CCc4ccc(Cl)cc43)c2c1`, the melting point came to 243 °C.

Molecule `Cc1c(-c2ccc(O)c(F)c2)sc(C=O)c1-c1ccc(O)c(Cl)c1` returned a melting point of 252 to 254 °C. Consider `CSc1sc2[nH]c(=O)c(=O)[nH]c2c1C#N`, for which the melting point was greater than 225 °C. Under `COc1ccc(/C=C(\C#N)c2ccccc2F)cc1OC1CCCC1` stands 70 to 73 °C; under `CN1c2ccccc2C(=C2CCN(C(=O)OCC(Cl)(Cl)Cl)CC2)c2ccccc21`, 190 to 192 °C; under `C=Cc1nc(Cl)nc(Cl)c1OC`, 60 to 61 °C. As for `CCOCc1nc2c(N)nc3ccccc3c2n1CCCCS(=O)(=O)NCc1ccc(OC)cc1`, the melting point was found to be 101 °C. The molecule `O=C1C=CN=CC1[N+](=O)[O-]` (stereo not given) had a melting point of 282 to 284 °C. To `CC(C)(C)OC(=O)N[C@H]1CCN(c2nc3c(cc2F)c(=O)c(C(=O)O)cn3C2CC2)C1` belongs 247 to 249 °C; to `CCCN(CCC)C1=NC2C(Br)=NN(C)C2C(O)=N1` (stereo not given), 186 to 187 °C. As for `CCCn1nc(C(C)C)c(C(=O)OCc2ccccc2C(=O)c2ccccc2)c1Cc1ccc(-c2ccccc2S(=O)(=O)NC(C)(C)C)c(F)c1`, the melting point lay within 49 to 51 °C. Regarding `Cc1cn(CC(Br)C(=O)N(C)C)nc1-c1ccccc1` (stereo not given), the melting point was in the range of 104 to 107 °C. Take `N#CC1=C(N)Oc2c(ccc3cnccc23)C1c1cccc([N+](=O)[O-])c1` (stereo not given): the melting point lay in the range of 239 to 243 °C. With `CC(C)(C(=O)O)c1nc2ccc(OCCCN3CCN(C(c4ccccc4)c4ccccc4)CC3)nn2c1Cl`, the melting point lay within 118 to 121 °C. For `O=C(Nc1ccccn1)c1cnc2c(c1O)CCCC2`, the melting point is greater than 300 °C.

As for `CS(=O)(=O)Oc1ccc(C(c2ccc(OS(C)(=O)=O)c([N+](=O)[O-])c2)(C(F)(F)F)C(F)(F)F)cc1[N+](=O)[O-]`, the melting point is 119 to 121 °C. `O=C(c1ccccc1)c1nc(Br)c2n1CCC2C(=O)O` (stereo not given): the melting point lay within 190 to 192 °C. Consider `CN1Cc2c(F)ccc3scc(c23)S1(=O)=O`, for which the melting point came out at 175 °C.

In the case of `Cn1nc(-c2c(F)cccc2Cl)nc1-c1sc(Br)c(Cl)c1Cl`, the melting point lay within 178 to 180 °C. With `COc1nccnc1C1=CN2CCC1CC2`, the melting point lay in the range of 95 to 96 °C. On to `Cc1onc(C(=O)c2ccccc2Cl)c1N`, for which the melting point fell in the range of 75 to 78 °C.

`CC(=O)SCC(C)C(=O)N(CC(=O)O)C1CCCCC1` (stereo not given) had a melting point of 142 to 144 °C. Regarding `CC(C)CNC(=O)C=CC=CCCCCCCCOc1cccc(Cl)n1`, the melting point is 80 to 81 °C. To `CCCc1[nH]c2cc(C(=O)OC)ccc2c1C(=O)C1CC1` belongs 152 to 154 °C; to `CCc1nc2cc(/C=C/C(=O)NO)c(F)cc2c(=O)n1CCc1ccccc1`, 219 to 221 °C.

The molecule `CC(c1ccccc1Cl)n1cnc2cnc3ccccc3c21` (stereo not given) yielded a melting point of 156 to 158 °C. For `COc1cc(C(=O)N2CCc3nnc(NN)cc3C2)cc(OC)c1OC`, the melting point lay within 194 to 197 °C. `O=c1oc2cc(O)cc(O)c2c(O)c1C1=CCOc2oc3ccccc3c(=O)c21`: the melting point is 254 to 256 °C. To `CNC(=NC#N)Nc1ccc(Cl)nc1` belongs 227 to 228 °C. To `O=C1Nc2ccc(-c3cccc(Cl)c3)cc2C1=O` belongs 159 to 161 °C; to `Cc1ccc(F)cc1NC(=O)c1cc([N+](=O)[O-])ccc1NC(=O)CF`, 217 to 219 °C. The molecule `Cc1cccnc1C1CC(C)(C)Oc2ccc([N+](=O)[O-])cc21` (stereo not given) yielded a melting point of 164 to 165 °C.

In the case of `CN(C)CCSC(=O)c1c[nH]c(=S)n1C1CCc2c(F)cc(F)cc2C1` (stereo not given), the melting point was in the range of 204 to 206 °C. For the molecule `O=S(=O)(Nc1cccc(OCCc2ccc3ccccc3c2)c1)c1cccc2ccccc12`, the melting point lay within 165 to 167 °C. To `CCc1cccc(C)c1CNc1cc(C(=O)N(C)C)cn2c(C)nnc12` belongs 201 °C; to `Cc1nnc(SCc2nc(NCCCOc3cccc(CN4CCCCC4)c3)n(C)n2)s1`, 63 °C; to `COc1cc(Cc2cnc(N[N+](=O)[O-])[nH]c2=O)ccn1`, 194 to 196 °C. Molecule `COc1ccc(F)c(F)c1C(=O)c1cnc(NC2CCN(S(N)(=O)=O)CC2)nc1N` displayed a melting point of 217 to 218 °C. For `CS(=O)(=O)N1CC(=O)c2ccsc2C1`, the melting point was determined as 120 °C. The molecule `CCCCc1ccc(-c2[nH]nc3c2C(=O)c2c(NC(C)=O)cccc2-3)cc1` yielded a melting point of 259 °C. `Cc1nsc(N(C)C(=O)C2CCCCC2)n1` gave a melting point of 96 °C.

In turn, `COc1cc(C2=NNC(=O)Cc3cc4c(cc32)OCO4)ccc1N` had a melting point of 147 to 150 °C.

Regarding `COc1ccc(C(=O)O)c(OCc2ccccc2)c1`, the melting point was in the range of 99 to 101 °C. On to `CCOc1nn(-c2cc(C(F)(F)F)ccn2)cc1CCCOc1ccc(CCC(=O)O)cc1OC`, for which the melting point is 111 to 112 °C. Turning to `Cc1cc2c(s1)Oc1cccc(C)c1N=C2N1CCN(C)CC1`, the melting point lay within 114 to 117 °C. The molecule `COc1ccc(SC)c2c1CC(=O)CC2` came in with a melting point of 88 to 90 °C.

In turn, `O=C(O)CCN(O)CCC(=O)O` yielded a melting point of 148 to 149 °C.
